Reference: patent publication US9801844B2, “Methods and compositions for the treatment of cancer” (priority 2012, dated 2017)
Several values for one entry are separate records, joined by “and”; a condition that tells them apart may be missing. Equal values may be shown once. Read-outs that look alike come from different tables or passages of the source.

How the values were obtained:
[1] = test system: MDA-MB-468 human breast cancer cells; assay: Microarray gene expression analysis (Affymetrix, AffyLimma); type: cell-based; details: 6 h
Protocol: MDA-MB-468 cells were treated with 5 μg/mL (15 μM) or 20 μg/mL of CA for 6 or 24 h. RNA was isolated using methods known in the art. Total cellular RNA was extracted using Trizol (Invitrogen; Carlsbad, Calif.) according to the manufacturer's protocol with minor modifications, and then purified twice with Qiagen's RNeasy column. Total RNA (8 μg) was reverse transcribed with T7-(dT)24 primer and Super Script III reverse transcriptase (Invitrogen).
Microarray analysis was performed using methods known in the art. Labeled cDNA was generated from MDA-MB-468 cells and hybridized to Affymetrix […] genome arrays at Columbia University following standard Affymetrix protocols. Analysis was performed using the AffyLimmaGUI package in the open-source Bioconductor suite.
Affy-Limma analysis was used to determine the effects of carnosic acid, at a dose of 20 μg/ml and at 6 h on the gene expression pattern in MDA-MB-468 breast cancer cells. Assays were performed as described in the Materials and methods section. Fold change (log) is the mean of the ratio of hybridization signals in carnosic acid treated vs. control treated cells {40 highest M (log-fold) values; p<0.05}.
For gene expression analysis, the samples were analyzed by AffyLima analysis. The statistical significance of differential expression was calculated using the empirical Bayesian LIMMA ([…]) method of Smyth et al. (Smyth, G. K. et al., “Use of within-array replicate spots for assessing differential expression in microarray experiments.” Bioinformatics 2005; 21:2067-75, incorporated herein by reference): B=log e(odds of differential expression), the Bayesian natural (base e) log of the odds that the genes are differentially expressed.

ER-negative SUM149 cells = assay: MTT cell proliferation assay on SUM149 cells; type: cell-based; details: read-out: IC50 growth inhibition
Protocol: (§1) MDA-MB-453 (ER negative, Her2 overexpressing), MDA-MB-468 (triple negative) and MCF7 (ER positive, Her2 low) cells, HT29 (p53 positive human colon cancer cells) (ATCC, Manassas, Va.) were grown in Dulbecco's Modified Eagle's medium (DMEM) (Gibco BRL Life Technologies, Inc., Rockville, Md.) containing 10% (v/v) fetal bovine serum (FBS) (Gibco BRL) at 37° C., 5% C02. SUM 149 (Her2 overexpressing, ER low) (the gift of Dr. R. Parsons, Columbia University Medical Center, New York, N.Y.) were cultivated in Ham's F-12 medium with 10% FBS. MCF7 and MCF7/Her2-18 (MCF7 cells transfected with a full length Her2 cDNA coding region, 45-fold increase Her2) were the kind gift of Dr. Dennis Slamon (Los Angeles, Calif.). These cells were maintained in RPMI supplemented with 10% FBS plus glutamine (1%) and PSF (1%) (Gibco, Rockville Md.).
MTT assay: the MTT {3-(4,5-dimethyl-2-thiazol)-2,5-diphenyl-2H tetrazolilum bromide} (Dojindo; Tokyo, Japan) cell proliferation assay system (Roche Diagnostic, Mannheim, Germany) was used to determine the sensitivity of the various cell lines to agents. Cells were seeded at 1×10^4 cells/well in 96-well plates and allowed to attach for 24 h. […] The cells were treated for 96 or 120 h, after which they were incubated with MTT reagents and the absorbance read at 650 and 575 nm. For cell growth assays, the data are expressed as mean+/−standard deviation. […]

[2] = test system: SKOV3 (Her2 overexpressing) human ovarian cancer cells; assay: MTT cell proliferation assay on SKOV3 cells; type: cell-based; details: SKOV3, 96 h
Protocol: SKOV3 (Her2 overexpressing) ovarian cancer cells (ATCC, Manassas, Va.), were grown in McCoy's media (Gibco BRL Life Technologies, Inc., Rockville, Md.) containing 10% (v/v) fetal bovine serum (FBS) (Gibco BRL) at 37° C., 5% C02, plus Penn-Strep (Sigma).
The MTT [3-(4,5-dimethyl-2-thiazol)-2,5-diphenyl-2H tetrazolilum bromide] (Dojindo; Tokyo, Japan) cell proliferation assay system (Roche Diagnostic, Mannheim, Germany) was used to determine the sensitivity of the cell lines to agents. Cells were seeded at 1×10^4 cells/well in 96-well plates and allowed to attach for 24 h. The medium was replaced with fresh medium containing DMSO or compound. The cells were treated for 96 h, after which the media was replaced with fresh media; the cells were incubated with MTT reagents and the absorbance read at 650 and 575 nm. The 650 reading was subtracted from the 575 reading to correct for background absorbance.

[3] = test system: MDA-MB-468 triple negative breast cancer cells; assay: MTT cell proliferation assay on MDA-MB-468 cells; type: cell-based, human; details: for IC50: read-out: IC50 growth inhibition
Protocol: as §1
MTT assay: the MTT {3-(4,5-dimethyl-2-thiazol)-2,5-diphenyl-2H tetrazolilum bromide} (Dojindo; Tokyo, Japan) cell proliferation assay system (Roche Diagnostic, Mannheim, Germany) was used to determine the sensitivity of the various cell lines to agents. Cells were seeded at 1×10^4 cells/well in 96-well plates and allowed to attach for 24 h. The medium was replaced with fresh medium containing DMSO or compound. The cells were treated for 96 or 120 h, after which they were incubated with MTT reagents and the absorbance read at 650 and 575 nm. For cell growth assays, the data are expressed as mean+/−standard deviation. Control and treated cells were compared using the student's t-test (p<0.05).
To determine the Combination Index (CI), cells were treated with all combinations of 4 or 5 concentrations of each of the agents tested and a solvent control. The results of the MTT assay were analyzed for possible synergistic effects using the median effect principle. Variable ratios of drugs were employees and mutually exclusive equations were assumed.

[4] = MDA-MB-468 cells, MTT assay, listed as CA

CC(C)c1cc2c(c(O)c1O)[C@@]1(C(=O)O)CCCC(C)(C)[C@@H]1CC2 [carnosic acid]
number of genes altered, p<0.05 ([1]; 20 μg/ml): 124 genes | ratio of genes activated to suppressed ([1]; 20 μg/ml): 4.6 | number of genes repressed ([1]; higher dose (20 μg/ml)): 22 genes | number of genes whose expression is activated ([1]; higher dose (20 μg/ml)): 102 genes | number of genes whose expression is activated ([1]; low dose (5 μg/ml), glutathione metabolism and transport genes): 3 genes | M (log-fold) GDF15/LOC100292463 expression ([1]; probe 22577_x_at, 20 μg/ml): 3.2033 log-fold | M (log-fold) TXNRD1 expression ([1]; probe 201266_at, 20 μg/ml): 1.6785 log-fold | M (log-fold) ELF3 expression ([1]; probe 201510_at, 20 μg/ml): −1.3391 log-fold | M (log-fold) HEXIM1 expression ([1]; probe 202814_s_at, 20 μg/ml): −1.2946 log-fold | M (log-fold) GCLC expression ([1]; probe 202922_at, 20 μg/ml): 2.5514 log-fold | M (log-fold) GCLC expression ([1]; probe 202923_s_at, 20 μg/ml): 2.3524 log-fold | M (log-fold) HMOX1 expression ([1]; probe 203665_at, 20 μg/ml): 6.2079 log-fold | M (log-fold) TTLL4 expression ([1]; probe 203702_s_at, 20 μg/ml): 1.4497 log-fold | M (log-fold) GCLM expression ([1]; probe 203925_at, 20 μg/ml): 1.6079 log-fold | M (log-fold) CDKN2C expression ([1]; probe 204159_at, 20 μg/ml): −1.5843 log-fold | M (log-fold) PMAIP1 expression ([1]; probe 204286_s_at, 20 μg/ml): 1.5443 log-fold | M (log-fold) KIF21B expression ([1]; probe 204411 at, 20 μg/ml): 2.0237 log-fold | M (log-fold) CBR3 expression ([1]; probe 205379_at, 20 μg/ml): 1.4702 log-fold | M (log-fold) CTH expression ([1]; probe 206085_s_at, 20 μg/ml): 2.3083 log-fold | M (log-fold) ABCC2 expression ([1]; probe 206155_at, 20 μg/ml): 2.2558 log-fold | M (log-fold) CYP4F3 expression ([1]; probe 206515 _at, 20 μg/ml): 2.4762 log-fold | M (log-fold) AKR1B10 expression ([1]; probe 206561_s_at, 20 μg/ml): 2.3416 log-fold | M (log-fold) SLC7A11 expression ([1]; probe 207528_s_at, 20 μg/ml): 2.3041 log-fold | M (log-fold) ID3 expression ([1]; probe 207826_s_at, 20 μg/ml): −1.9788 log-fold | M (log-fold) DDIT3/NR1H3 expression ([1]; probe 209383_at, 20 μg/ml): 1.8207 log-fold | M (log-fold) GRB10 expression ([1]; probe 209409_at, 20 μg/ml): 1.6777 log-fold | M (log-fold) RIT1 expression ([1]; probe 209882_at, 20 μg/ml): 1.3792 log-fold | M (log-fold) SLC7A11 expression ([1]; probe 209921_at, 20 μg/ml): 3.7330 log-fold | M (log-fold) MAP2 expression ([1]; probe 210015_s_at, 20 μg/ml): 1.9566 log-fold | M (log-fold) AKR1C2 expression ([1]; probe 211653_x_at, 20 μg/ml): 4.1458 log-fold | M (log-fold) ZC3HAV1 expression ([1]; probe 213051_at, 20 μg/ml): −1.5819 log-fold | M (log-fold) AKR1C1 expression ([1]; probe 216594_x_at, 20 μg/ml): 3.8405 log-fold | M (log-fold) CTH expression ([1]; probe 217127_at, 20 μg/ml): 2.3586 log-fold | M (log-fold) SLC7A11 expression ([1]; probe 217678_at, 20 μg/ml): 3.9492 log-fold | M (log-fold) NAMPT expression ([1]; probe 217738_at, 20 μg/ml): 1.4857 log-fold | M (log-fold) NAMPT expression ([1]; probe 217739_s_at, 20 μg/ml): 1.7329 log-fold | M (log-fold) PHLDA1 expression ([1]; probe 217996_at, 20 μg/ml): 1.9833 log-fold | M (log-fold) SLC38A2 expression ([1]; probe 218041_x_at, 20 μg/ml): 1.2613 log-fold | M (log-fold) TRIB3 expression ([1]; probe 218145_at, 20 μg/ml): 1.6338 log-fold | M (log-fold) KCTD15 expression ([1]; probe 218553_s_at, 20 μg/ml): 1.3491 log-fold | M (log-fold) OSGIN1 expression ([1]; probe 219475_at, 20 μg/ml): 1.9508 log-fold | M (log-fold) SLC38A2 expression ([1]; probe 220924_s_at, 20 μg/ml): 1.2541 log-fold | M (log-fold) RIPK4 expression ([1]; probe 221215_s_at, 20 μg/ml): −1.2540 log-fold | M (log-fold) C9orf91 expression ([1]; probe 221865_at, 20 μg/ml): 1.3335 log-fold | M (log-fold) ALDH1A3 expression ([1]; probe 222168_at, 20 μg/ml): −1.4627 log-fold | IC50 (ER-negative SUM149 cells): 1.7 µg/mL and 5.1 µM | % cell proliferation ([2]; 5 μg/ml): 105.3% | % cell proliferation ([2]; 10 μg/ml): 56.7% | % cell proliferation ([2]; 15 μg/ml): 8.1% | % cell proliferation ([2]; 20 μg/ml): 6.7% | IC50 ([2]; Homo sapiens, SK-OV-3, MTT, read-out: IC50, concentration that caused 50% inhibition of cell growth): ~10.5 µg/mL and ~31.6 µM | IC50 ([3]; Homo sapiens, MDA-MB-468, MDA-MB-468 cells, MTT assay): 2 µg/mL and 6 µM | viability at 6 µM ([3]; Homo sapiens, MDA-MB-468, CA 2 μg/ml (6 μM) alone, read-out: percent viable cells): 89.4% | IC50 growth inhibition [3, 4]: 3 µg/mL | IC50 [3, 4]: 9 µM
